Results from US8802597B2, “Herbicidal pyrimidines” (E I du Pont de Nemours and Company, priority 2003, dated 2014).

Columns and labels:
Assay type in all cases: in vivo
[1] = tested on: bermudagrass (Cynodon dactylon); test: Test C pre/postemergence; settings: Postemergence
Summary of the method: (§1)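 Greenhouse herbicide screen, visual readout. Compound in solvent/surfactant applied preemergence at planting or postemergence to 1- to 4-leaf plants; assessed at 12–14 days on a 0–100 control scale.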

[2] = tested on: common ragweed (Ambrosia elatior); test: Test C pre/postemergence; settings: Postemergence
Summary of the method: as §1

[3] = tested on: ducksalad (Heteranthera limosa); test: Test E flooded paddy water application; settings: Flood, 21 days, scale 0 to 100 (0 no effect, 100 complete control); for Plant response rating, Ducksalad: 16 g ai/ha
Summary of the method: (§2)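 Response scored visually on a 0–100 scale (100 = complete control) at 21 days against untreated pots. Treatment was into paddy water 3 cm deep over silt loam, with plants at the 2.0–2.5-leaf stage, grown under 16-h light at 29.5/26.7 °C day/night.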

[4] = tested on: water seeded rice seedlings (Oryza sativa cv. ‘Japonica-M202’); test: Test E flooded paddy water application; settings: Flood, 21 days, scale 0 to 100 (0 no effect, 100 complete control)
Summary of the method: as §2

[5] = tested on: early watergrass (Echinochloa oryzoides); test: Test E flooded paddy water application; settings: Flood, 21 days, scale 0 to 100 (0 no effect, 100 complete control)
Summary of the method: as §2

[6] = tested on: transplanted rice seedlings (Oryza sativa cv. ‘Japonica-M202’); test: Test E flooded paddy water application; settings: Flood, 21 days, scale 0 to 100 (0 no effect, 100 complete control)
Summary of the method: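 Greenhouse pots of Tama silt loam with weeds and rice at 2.0–2.5-leaf stage, flooded to 3 cm; compounds applied directly into paddy water, depth maintained. Visual rating versus untreated controls after 21 days, 0 (no effect) to 100 (complete control); 29.5/26.7 °C, 16-h photoperiod.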

[7] = tested on: purple redstem (Ammannia coccinea); test: Test E flooded paddy water application; settings: Flood, 21 days, scale 0 to 100 (0 no effect, 100 complete control)
Summary of the method: as §2

[8] = 62 g ai/ha, scale 0 to 100 (0 no effect, 100 complete control)
[9] = 125 g ai/ha, scale 0 to 100 (0 no effect, 100 complete control)

SMILES | Plant response rating (scale of 0 to 100), Bermudagrass ([1]; 16 g ai/ha) | Plant response rating (scale of 0 to 100), Bermudagrass ([1]; 31 g ai/ha) | Bermudagrass plant response rating [1, 8] | Bermudagrass plant response rating [1, 9] | Plant response rating (scale of 0 to 100), Ragweed ([2]; 16 g ai/ha) | Plant response rating (scale of 0 to 100), Ragweed ([2]; 31 g ai/ha) | Plant response rating (scale of 0 to 100), Ragweed ([2]; 62 g ai/ha) | Ragweed plant response rating [2, 9] | Ducksalad plant response rating ([3]; 32 g ai/ha) | Ducksalad plant response rating ([3]; 64 g ai/ha) | Ducksalad plant response rating ([3]; 125 g ai/ha) | Ducksalad plant response rating ([3]; 250 g ai/ha) | Plant response rating, Ducksalad [3] | Rice, Water Seeded plant response rating ([4]; 64 g ai/ha) | Rice, Water Seeded plant response rating ([4]; 125 g ai/ha) | Rice, Water Seeded plant response rating ([4]; 250 g ai/ha) | Plant response rating, Rice, Water Seeded ([4]; 16 g ai/ha) | Rice, Transplanted plant response rating ([6]; 64 g ai/ha) | Rice, Transplanted plant response rating ([6]; 125 g ai/ha) | Rice, Transplanted plant response rating ([6]; 250 g ai/ha) | also measured
Nc1nc(-c2ccc(Br)cc2)nc(C(=O)O)c1Br [Compound 136] | 75 | 80 | 80 | 85 | 75 | 85 | 90 | 95 |  |  |  |  |  |  |  |  |  |  |  |  | 
COC(=O)c1nc(-c2ccc(Cl)cc2)nc(N)c1Br [Compound 83] | 0 | 5 | 20 | 55 | 65 | 70 | 75 | 95 |  |  |  |  |  |  |  |  |  |  |  |  | 
CCOC(=O)c1nc(C2CC2)nc(NN)c1Br [Compound 42] |  |  |  |  |  |  |  |  |  |  |  |  |  |  |  |  |  |  |  |  | pest or weed control at 31 g/ha ([1]; Cynodon dactylon, post-emergence, 31 g ai/ha, read-out: Plant response rating (scale of 0 to 100), Bermudagrass): 0%; pest or weed control at 62 g/ha ([1]; Cynodon dactylon, post-emergence, 62 g ai/ha, scale 0 to 100 (0 no effect, 100 complete control), read-out: Bermudagrass plant response rating): 0%; pest or weed control at 125 g/ha ([1]; Cynodon dactylon, post-emergence, 125 g ai/ha, scale 0 to 100 (0 no effect, 100 complete control), read-out: Bermudagrass plant response rating): 0%; pest or weed control at 250 g/ha ([1]; Cynodon dactylon, post-emergence, 250 g ai/ha, scale 0 to 100, read-out: Plant response rating, Bermudagrass): 5%; pest or weed control at 31 g/ha ([2]; Ambrosia artemisiifolia, post-emergence, 31 g ai/ha, read-out: Plant response rating (scale of 0 to 100), Ragweed): 0%; pest or weed control at 62 g/ha ([2]; Ambrosia artemisiifolia, post-emergence, 62 g ai/ha, scale 0 to 100 (0 no effect, 100 complete control), read-out: Ragweed plant response rating): 10%; pest or weed control at 125 g/ha ([2]; Ambrosia artemisiifolia, post-emergence, 125 g ai/ha, scale 0 to 100 (0 no effect, 100 complete control), read-out: Ragweed plant response rating): 40%; pest or weed control at 250 g/ha ([2]; Ambrosia artemisiifolia, post-emergence, 250 g ai/ha, scale 0 to 100, read-out: Plant response rating, Ragweed): 40%
COC(=O)c1nc(-c2ccc(Br)cc2)nc(N)c1Br [Compound 129] |  |  |  |  |  |  |  |  | 100 | 100 | 100 | 100 | 100 | 0 | 0 | 0 | 0 | 0 | 0 | 0 | Plant response rating, Rice, Water Seeded ([4]; 32 g ai/ha): 0; Watergrass, Early plant response rating ([5]; 64 g ai/ha): 0; Watergrass, Early plant response rating ([5]; 125 g ai/ha): 0; Watergrass, Early plant response rating ([5]; 250 g ai/ha): 0; Plant response rating, Watergrass, Early ([5]; 16 g ai/ha): 0; Plant response rating, Watergrass, Early ([5]; 32 g ai/ha): 0; Plant response rating, Rice, Transplanted ([6]; 16 g ai/ha): 0; Plant response rating, Rice, Transplanted ([6]; 32 g ai/ha): 0; Redstem plant response rating ([7]; 64 g ai/ha): 75; Redstem plant response rating ([7]; 125 g ai/ha): 80; Redstem plant response rating ([7]; 250 g ai/ha): 95; Plant response rating, Redstem ([7]; 16 g ai/ha): 30; Plant response rating, Redstem ([7]; 32 g ai/ha): 60
COC(=O)c1nc(-c2ccc(Cl)cc2)nc(N)c1Cl [Compound 58, methyl 6-amino-5-chloro-2-(4-chlorophenyl)-4-pyrimidinecarboxylate] |  |  |  |  |  |  |  |  | 100 | 100 | 100 | 100 | 100 | 0 | 0 | 20 | 0 | 0 | 0 | 0 | Rice, Water Seeded plant response rating ([4]; 32 g ai/ha): 0; Rice, Transplanted plant response rating ([6]; 32 g ai/ha): 0; Plant response rating, Rice, Transplanted ([6]; 16 g ai/ha): 0; Redstem plant response rating ([7]; 32 g ai/ha): 80; Redstem plant response rating ([7]; 64 g ai/ha): 85; Redstem plant response rating ([7]; 125 g ai/ha): 95; Redstem plant response rating ([7]; 250 g ai/ha): 95; Plant response rating, Redstem ([7]; 16 g ai/ha): 60
